This passage reports LC retention time results from the RepoRT retention time repository (doi:10.1016/j.foodchem.2021.129757).

Details in all cases: stereoisomer not certain
Data set [1] can be described thus: RP, 100 × 0.5 mm, 2.7 µm, 45 °C, 0.015 mL/min, estimated dead time 0.83 min; A: water + 0.9% formic acid; B: acetonitrile + 0.9% formic acid; gradient (min/%B) 0/1 0.5/1 4/95 4.5/1 5/1.
Data set [2] can be described thus: RP, 50 × 0.5 mm, 2.7 µm, 35 °C, 0.01 mL/min, estimated dead time 0.62 min; A: water + 0.1% formic acid, pH 3; B: acetonitrile + 0.1% formic acid, pH 3; gradient (min/%B) 0/5 12/95 14/95 16/5.
Data set [3] can be described thus: RP, Phenomenex Luna Omega Polar C18, 100 × 2.1 mm, 1.6 µm, 40 °C, 0.5 mL/min, estimated dead time 0.44 min; A: water + 0.5% formic acid; B: acetonitrile + 0.5% formic acid; gradient (min/%B) 0/5 3/50 3.1/100 5/100 5.1/5 7/5.
The nature of data set [4]: RP, Phenomenex Luna C18, 150 × 4.6 mm, 3 µm, 25 °C, 0.5 mL/min, estimated dead time 3.2 min; A: water + 0.1% formic acid, pH 3; B: acetonitrile + 0.1% formic acid, pH 3; gradient (min/%B) 0/0 30/30 35/40 50/80 52/80 60/0 65/0.
The nature of data set [5]: RP, Phenomenex Synergi Hydro-RP, 250 × 2 mm, 4 µm, 25 °C, 0.2 mL/min, estimated dead time 2.5 min; A: water + 0.1% formic acid, pH 3; B: acetonitrile + 0.1% formic acid, pH 3; gradient (min/%B) 0/0.5 7/0.5 12/12.5 25/16.3 47/35 48/65 50/65 50.1/0.5.
Data set [6] in a line: RP, Phenomenex Luna Omega Polar C18, 100 × 2.1 mm, 1.6 µm, 40 °C, 0.5 mL/min, estimated dead time 0.44 min; A: water + 0.1% formic acid + 10 mM ammonium formate; B: acetonitrile; gradient (min/%B) 0/5 8/20 10/100 12/100 12.1/5 14/5.
The nature of data set [7]: RP, Agilent ZORBAX Eclipse XDB-C18, 100 × 2.1 mm, 1.8 µm, 50 °C, 0.4 mL/min, estimated dead time 0.55 min; A: water + 0.1% formic acid, pH 3; B: methanol + 0.1% formic acid, pH 3; gradient (min/%B) 0/2 10/100 14.5/100 14.51/2 16.5/2.
Data set [8] can be described thus: RP, Waters ACQUITY UPLC BEH Shield RP18, 100 × 2.1 mm, 1.7 µm, 30 °C, 0.6 mL/min, estimated dead time 0.37 min; A: water + 0.1% formic acid, pH 3; B: acetonitrile + 0.1% formic acid, pH 3; gradient (min/%B) 0/0 2/0 7/10 22/95 22.1/0 26/0.
The nature of data set [9]: RP, 150 × 2.1 mm, 2.6 µm, 40 °C, 0.35 mL/min, estimated dead time 0.94 min; A: water + 0.1% formic acid, pH 3; B: acetonitrile + 0.1% formic acid, pH 3; gradient (min/%B) 0/0 1/0 12.5/100 14/100 14.2/0 15/0.
A short description of data set [10]: RP, Phenomenex Synergi Hydro-RP, 150 × 2 mm, 4 µm, 30 °C, 0.5 mL/min, estimated dead time 0.6 min; A: water + 0.1% formic acid, pH 3; B: acetonitrile + 0.1% formic acid, pH 3; gradient (min/%B) 0/5 1/5 35/45 40/100 45/100.
Data set [11] can be described thus: RP, 150 × 2.1 mm, 2.6 µm, 40 °C, 0.35 mL/min, estimated dead time 0.94 min; A: water + 0.1% formic acid, pH 3; B: acetonitrile + 0.1% formic acid, pH 3; gradient (min/%B) 0/0 1/5 7/45 8.5/80 10.5/80 11/5 12/5.
A short description of data set [12]: RP, Waters ACQUITY UPLC BEH C18, 100 × 2.1 mm, 1.7 µm, 65 °C, 0.4 mL/min, estimated dead time 0.55 min; A: water + 0.1% formic acid, pH 3; B: 80% acetonitrile + 20% acetone + 0.1% formic acid, pH 3; gradient (min/%B) 0/0 5/100 5.5/0 6/0.
The nature of data set [13]: RP, Agilent InfinityLab Poroshell 120 EC-C18, 100 × 3 mm, 2.7 µm, 25 °C, 0.4 mL/min, estimated dead time 1.1 min; A: water + 0.1% formic acid, pH 3; B: acetonitrile + 0.1% formic acid, pH 3; gradient (min/%B) 0/5 10/25 20/40 24/90 25/90 26/5 30/5.
The nature of data set [14]: RP, Waters ACQUITY UPLC HSS T3, 100 × 2.1 mm, 1.8 µm, 30 °C, 0.4 mL/min, estimated dead time 0.55 min; A: water + 0.1% formic acid, pH 3; B: acetonitrile + 0.1% formic acid, pH 3; gradient (min/%B) 0/0 2/0 15/100 22/100 22.1/0 26/0.
A short description of data set [15]: RP, Waters ACQUITY UPLC BEH Shield RP18, 150 × 2.1 mm, 1.7 µm, 40 °C, 0.4 mL/min, estimated dead time 0.83 min; A: water + 0.1% formic acid, pH 3; B: acetonitrile + 0.1% formic acid, pH 3; gradient (min/%B) 0/0 30/50 31/100 37/100 37.1/0.
Data set [16] in a line: RP, Waters Atlantis T3, 100 × 2.1 mm, 3 µm, 40 °C, 0.3 mL/min, estimated dead time 0.73 min; A: water + 0.1% trifluoroacetic acid, pH 2; B: acetonitrile + 0.1% trifluoroacetic acid, pH 2; gradient (min/%B) 0/10 1/10 6/40 7/50 8/50 14/70 16/80 20/10 25/10.
A short description of data set [17]: RP, Agilent ZORBAX RRHD Eclipse Plus C18, 50 × 2.1 mm, 1.8 µm, 30 °C, 0.4 mL/min, estimated dead time 0.28 min; A: water + 0.1% formic acid, pH 3; B: acetonitrile + 0.1% formic acid, pH 3; gradient (min/%B) 0/1 5/10 8/25 9.1/99 10/99 12/99.
A short description of data set [18]: RP, Merck LiChrospher RP-18, 250 × 4 mm, 5 µm, 35 °C, 0.3 mL/min, estimated dead time 6.7 min; A: water + 0.5% formic acid; B: acetonitrile + 0.5% formic acid; gradient (min/%B) 0/5 10/5 30/15 45/20 65/20 95/54 110/63 115/5 135/5.
Data set [19] can be described thus: RP, Agilent ZORBAX RRHD Eclipse Plus C18, 50 × 2.1 mm, 1.8 µm, 30 °C, 0.4 mL/min, estimated dead time 0.28 min; A: water + 0.1% formic acid, pH 3; B: acetonitrile + 0.1% formic acid, pH 3; gradient (min/%B) 0/1 5/10 8/25 9.1/99 10/99 12/1.
Data set [20] in a line: RP, Phenomenex Kinetex EVO C18, 100 × 2.1 mm, 2.6 µm, 40 °C, 0.4 mL/min, estimated dead time 0.55 min; A: water + 0.2% formic acid; B: acetonitrile + 0.2% formic acid; gradient (min/%B) 0/5 0.5/5 7/95 8/95 8.5/5 12/5.

Turning to `O=C(O)Cc1ccc(O)cc1` [4-Hydroxyphenylacetic acid], the LC retention time in data set [1] was 2.71 min; in data set [2] it was 2.53 min; in data set [3], 1.15 min; in [4], 14.7 min; in data set [5] it was 20.4 min; in data set [6] it was 3.36 min. For the same compound, the LC retention time was 3.26 min in data set [7]; 7.43 min in data set [8]; 4.61 min in [9]; 11.9 min in data set [10]; 4.34 min in [11]; 1.76 min in [12]. For the same compound, the LC retention time in data set [13] is 6.13 min; in [14] it was 8.37 min; in [15], 5.41 min.

As for `O=c1cc(-c2ccc(O)cc2)oc2cc(OC3OC(CO)C(O)C(O)C3O)cc(O)c12` (stereo unspecified) [Apigenin 7-O-glucoside], the LC retention time in [1] is 2.89 min; in data set [2], 4.87 min; in data set [16] it was 7.96 min; in [3] it was 2.6 min; in data set [4], 27.6 min; in data set [6] it was 9.12 min. Besides, the LC retention time is 5.5 min in data set [7]; 13.5 min in data set [8]; 6.07 min in data set [9]; 17.9 min in [10]; 6.23 min in [11]; 10.7 min in data set [13]. Further, the LC retention time was 9.6 min in data set [14] and 14.3 min in data set [15].

Consider `COc1ccc(C2CC(=O)c3c(O)cc(O)cc3O2)cc1O` (stereo unspecified) [Hesperetin], for which the LC retention time in data set [1] is 3.27 min; in data set [2] it was 6.17 min; in data set [16], 10.4 min; in data set [3], 3.57 min; in data set [4], 42.5 min; in data set [5], 51.9 min. Moreover, the LC retention time is 9.67 min in data set [6]; 6.64 min in data set [7]; 15.5 min in [8]; 7.8 min in [9]; 26.6 min in [10]; 8.21 min in [11]. In addition, the LC retention time in [12] was 2.93 min; in [13] it was 17.4 min; in data set [17], 9.29 min; in data set [14] it was 11.7 min; in [15], 21.2 min.

Turning to `COc1cc(-c2oc3cc(O)cc(O)c3c(=O)c2O)ccc1O` [Isorhamnetin], the LC retention time was 3.24 min in data set [1]; 4.51 min in [2]; 3.7 min in [3]; 42.5 min in data set [4]; 9.84 min in data set [6]; 98.9 min in data set [18]. Besides, the LC retention time in data set [7] is 7.05 min; in data set [8] it was 16.4 min; in data set [10], 27.4 min; in data set [13] it was 17.6 min; in data set [17], 9.29 min; in data set [14] it was 11.7 min. The LC retention time is 24 min in data set [15] and 9.19 min in data set [19].

As to `O=C(CCc1ccc(O)cc1)c1c(O)cc(O)cc1O` [Phloretin], the LC retention time in data set [1] is 3.13 min; in data set [2] it was 6 min; in data set [16] it was 10 min; in [4], 41.2 min; in data set [5], 50.6 min; in [6], 9.58 min. The LC retention time was 94.8 min in [18]; 6.47 min in data set [7]; 15.6 min in [8]; 7.51 min in [9]; 25.8 min in data set [10]; 7.9 min in data set [11]. Further, the LC retention time in [12] was 2.85 min; in [13], 16.7 min; in data set [17], 9.3 min; in data set [14], 11.4 min; in [15], 21.3 min; in data set [19] it was 9.14 min.

As for `CC1OC(OC2C(O)C(OCCc3ccc(O)c(O)c3)OC(CO)C2OC(=O)C=Cc2ccc(O)c(O)c2)C(O)C(O)C1O` (stereo unspecified) [Verbascoside], the LC retention time in [1] was 2.44 min; in data set [2], 4.6 min; in data set [16] it was 7.34 min; in data set [3] it was 2.49 min; in [4] it was 23 min; in data set [6], 8.28 min. For the same compound, the LC retention time in data set [7] was 4.86 min; in data set [8], 12.6 min; in data set [10], 15.8 min; in data set [13] it was 10.2 min; in data set [20], 4.84 min; in data set [14], 9.05 min. In addition, in data set [15], the LC retention time was 12 min.
